According to patent US9980943B2, “Methods of treating muscular dystrophy” (BOARD OF REGENTS OF THE NEVADA SYSTEM OF HIGHER EDUCATION, …, priority 2013, dated 2018):

Legend:
Assay type in all cases: cell-based, mouse
[1] = test system: β-galactosidase in CMV-LacZ C2C12 myotubes; test: CMV-LacZ secondary screen in C2C12 myotubes (β-Gal stabilizing assay); details: for CMV-LACZ in Myotubes, value relative to DMSO: SU9516 analogs, C2C12 CMV-LacZ, N=2; for CMV-LACZ in Myotubes, signal relative to DMSO: C2C12 CMV-LacZ myotubes, fold relative to DMSO
Method in brief: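 Dose-response runs at 0.5–40 μM (0.5, 1, 5, 10, 20, 40 μM; N=2 per point) used a clonal C2C12 line carrying CMV-LacZ. Cells were assayed as myoblasts or as differentiated myotubes, and β-galactosidase levels were read with the FDG fluorogenic substrate.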

[2] = test system: α7 integrin (LacZ reporter in α7+/LacZ myotubes); test: Myotube α7 integrin FDG assay (Burkin assay in myotubes, 96-well); details: for Burkin Assay in Myotubes, value relative to DMSO: SU9516 analogs, 96-well, N=3-6
[3] = test system: β-galactosidase in CMV-LacZ C2C12 myoblasts; test: CMV-LacZ secondary screen in C2C12 myoblasts (β-Gal stabilizing assay); details: for CMV-LACZ in Myoblasts, value relative to DMSO: SU9516 analogs, C2C12 CMV-LacZ, N=2; for CMV-LACZ in Myoblasts (β-galactosidase activity relative to DMSO): CMV-LacZ C2C12 myoblasts
Method in brief: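 C2C12 myoblasts stably carrying a linearized CMV-driven LacZ construct, clone chosen by β-gal level in the myoblast FDG assay. Compounds tested in 96-well dose-response at 0.5, 1, 5, 10, 20 and 40 μM, N=2 replicates per point, to detect β-gal stabilization.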

[4] = test system: α7 integrin (LacZ reporter in α7βgal+/− myoblasts); test: Myoblast α7+/LacZ integrin FDG assay (Burkin assay in myoblasts, 96-well); details: 96-well; for Burkin Assay in Myoblasts, value relative to DMSO: SU9516 analogs, N=3-6; for Burkin Assay in Myoblasts, signal relative to DMSO: α7+/LacZ myoblasts

NC(=O)COc1ccc(C(=O)/C=C2/C(=O)Nc3ccccc32)cc1 [MLS001214300-01]
CMV-LACZ in Myotubes, value relative to DMSO ([1]; 0.5 uM): 0.9819 | CMV-LACZ in Myotubes, value relative to DMSO ([1]; 1 uM): 0.8924 | CMV-LACZ in Myotubes, value relative to DMSO ([1]; 5 uM): 1.0550 | CMV-LACZ in Myotubes, value relative to DMSO ([1]; 10 uM): 1.0956 | CMV-LACZ in Myotubes, value relative to DMSO ([1]; 20 uM): 6.2635 | CMV-LACZ in Myotubes, value relative to DMSO ([1]; 40 uM): 0.7118 | Burkin Assay in Myotubes, value relative to DMSO ([2]; 0.5 uM): 1.019 | Burkin Assay in Myotubes, value relative to DMSO ([2]; 1 uM): 1.039 | Burkin Assay in Myotubes, value relative to DMSO ([2]; 5 uM): 1.091 | Burkin Assay in Myotubes, value relative to DMSO ([2]; 10 uM): 0.8733 | Burkin Assay in Myotubes, value relative to DMSO ([2]; 20 uM): 0.7447 | Burkin Assay in Myotubes, value relative to DMSO ([2]; 40 uM): 0.3178 | CMV-LACZ in Myoblasts, value relative to DMSO ([3]; 0.5 uM): 1.0446 | CMV-LACZ in Myoblasts, value relative to DMSO ([3]; 1 uM): 0.9403 | CMV-LACZ in Myoblasts, value relative to DMSO ([3]; 5 uM): 0.7949 | CMV-LACZ in Myoblasts, value relative to DMSO ([3]; 10 uM): 1.1047 | CMV-LACZ in Myoblasts, value relative to DMSO ([3]; 20 uM): 0.4007 | CMV-LACZ in Myoblasts, value relative to DMSO ([3]; 40 uM): 0.1793 | Burkin Assay in Myoblasts, value relative to DMSO ([4]; 0.5 uM): 1.211 | Burkin Assay in Myoblasts, value relative to DMSO ([4]; 1 uM): 0.9366 | Burkin Assay in Myoblasts, value relative to DMSO ([4]; 5 uM): 0.8041 | Burkin Assay in Myoblasts, value relative to DMSO ([4]; 10 uM): 0.353 | Burkin Assay in Myoblasts, value relative to DMSO ([4]; 20 uM): 0.1847 | Burkin Assay in Myoblasts, value relative to DMSO ([4]; 40 uM): 0.02593

Cn1c(-c2ccccc2)cc2ccccc21 [MLS001215074-01]
CMV-LACZ in Myotubes, signal relative to DMSO ([1]; 0.5 uM): 0.8752 | CMV-LACZ in Myotubes, signal relative to DMSO ([1]; 1 uM): 0.9238 | CMV-LACZ in Myotubes, signal relative to DMSO ([1]; 5 uM): 0.8364 | CMV-LACZ in Myotubes, signal relative to DMSO ([1]; 10 uM): 0.8583 | CMV-LACZ in Myotubes, signal relative to DMSO ([1]; 20 uM): 0.8700 | CMV-LACZ in Myotubes, signal relative to DMSO ([1]; 40 uM): 0.9930 | Burkin Assay in Myotubes, α7 integrin LacZ reporter signal relative to DMSO ([2]; 0.5 uM): 0.7886 | Burkin Assay in Myotubes, α7 integrin LacZ reporter signal relative to DMSO ([2]; 1 uM): 0.8307 | Burkin Assay in Myotubes, α7 integrin LacZ reporter signal relative to DMSO ([2]; 5 uM): 1.05 | Burkin Assay in Myotubes, α7 integrin LacZ reporter signal relative to DMSO ([2]; 10 uM): 1.132 | Burkin Assay in Myotubes, α7 integrin LacZ reporter signal relative to DMSO ([2]; 20 uM): 0.7505 | Burkin Assay in Myotubes, α7 integrin LacZ reporter signal relative to DMSO ([2]; 40 uM): 0.8488 | CMV-LACZ in Myoblasts (β-galactosidase activity relative to DMSO) ([3]; 0.5 uM): 0.7877 | CMV-LACZ in Myoblasts (β-galactosidase activity relative to DMSO) ([3]; 1 uM): 0.7800 | CMV-LACZ in Myoblasts (β-galactosidase activity relative to DMSO) ([3]; 5 uM): 1.1754 | CMV-LACZ in Myoblasts (β-galactosidase activity relative to DMSO) ([3]; 10 uM): 1.0294 | CMV-LACZ in Myoblasts (β-galactosidase activity relative to DMSO) ([3]; 20 uM): 1.1277 | CMV-LACZ in Myoblasts (β-galactosidase activity relative to DMSO) ([3]; 40 uM): 1.1432 | Burkin Assay in Myoblasts, signal relative to DMSO ([4]; 0.5 uM): 1.023 | Burkin Assay in Myoblasts, signal relative to DMSO ([4]; 1 uM): 0.9004 | Burkin Assay in Myoblasts, signal relative to DMSO ([4]; 5 uM): 0.9431 | Burkin Assay in Myoblasts, signal relative to DMSO ([4]; 10 uM): 0.9738 | Burkin Assay in Myoblasts, signal relative to DMSO ([4]; 20 uM): 0.7339 | Burkin Assay in Myoblasts, signal relative to DMSO ([4]; 40 uM): 0.5974

Cc1nc(Nc2ccccc2F)c2oc3ccccc3c2n1 [MLS001215123-01]
CMV-LACZ in Myotubes, signal relative to DMSO ([1]; 0.5 uM): 1.1657 | CMV-LACZ in Myotubes, signal relative to DMSO ([1]; 1 uM): 1.1457 | CMV-LACZ in Myotubes, signal relative to DMSO ([1]; 5 uM): 1.1153 | CMV-LACZ in Myotubes, signal relative to DMSO ([1]; 10 uM): 1.2929 | CMV-LACZ in Myotubes, signal relative to DMSO ([1]; 20 uM): 1.0710 | CMV-LACZ in Myotubes, signal relative to DMSO ([1]; 40 uM): 1.1030 | Burkin Assay in Myotubes, α7 integrin LacZ reporter signal relative to DMSO ([2]; 0.5 uM): 0.9466 | Burkin Assay in Myotubes, α7 integrin LacZ reporter signal relative to DMSO ([2]; 1 uM): 0.901 | Burkin Assay in Myotubes, α7 integrin LacZ reporter signal relative to DMSO ([2]; 5 uM): 1.049 | Burkin Assay in Myotubes, α7 integrin LacZ reporter signal relative to DMSO ([2]; 10 uM): 1.137 | Burkin Assay in Myotubes, α7 integrin LacZ reporter signal relative to DMSO ([2]; 20 uM): 0.6938 | Burkin Assay in Myotubes, α7 integrin LacZ reporter signal relative to DMSO ([2]; 40 uM): 0.816 | CMV-LACZ in Myoblasts (β-galactosidase activity relative to DMSO) ([3]; 0.5 uM): 1.0530 | CMV-LACZ in Myoblasts (β-galactosidase activity relative to DMSO) ([3]; 1 uM): 0.8837 | CMV-LACZ in Myoblasts (β-galactosidase activity relative to DMSO) ([3]; 5 uM): 1.0888 | CMV-LACZ in Myoblasts (β-galactosidase activity relative to DMSO) ([3]; 10 uM): 1.1943 | CMV-LACZ in Myoblasts (β-galactosidase activity relative to DMSO) ([3]; 20 uM): 1.2639 | CMV-LACZ in Myoblasts (β-galactosidase activity relative to DMSO) ([3]; 40 uM): 1.0098 | Burkin Assay in Myoblasts, signal relative to DMSO ([4]; 0.5 uM): 1.075 | Burkin Assay in Myoblasts, signal relative to DMSO ([4]; 1 uM): 0.9708 | Burkin Assay in Myoblasts, signal relative to DMSO ([4]; 5 uM): 1.1241 | Burkin Assay in Myoblasts, signal relative to DMSO ([4]; 10 uM): 1.155 | Burkin Assay in Myoblasts, signal relative to DMSO ([4]; 20 uM): 0.665 | Burkin Assay in Myoblasts, signal relative to DMSO ([4]; 40 uM): 0.5252
